For series [1], the system named is MDA-MB-435s cells (human melanoma cells). Put plainly: MDA-MB-435s cell proliferation inhibitory assay (CellTiter-Glo). The format is cell-based.
The nature of a further series: in vitro. The following applies: human, Caco-2.
Series [2] relates to MDA-MB-231 cells (human breast cancer cells). Put plainly: MDA-MB-231 cell proliferation inhibitory assay (CellTiter-Glo). The format is cell-based.
The test system of series [3] is MCF-7 cells (human breast cancer cells). Put plainly: MCF-7 cell proliferation inhibitory assay (CellTiter-Glo). The format is cell-based.
Series [4] relates to Caco-2 cells (human colorectal adenocarcinoma cells).
Procedure: (§1) Day 0 plated: After digesting the target cells in the logarithmic growth phase, make a single cell suspension and count. • 2). Took out the corresponding number of transwell chambers and placed them in a 24-well plate, added 200 μL PBS to the upper chamber, incubated for 10 mins, and removed the PBS from the upper chamber by pipette. • 3). According to the count, took an appropriate amount of cell suspension and resuspended it to 5000 cells/200 μL, mixed well and added it to the upper chamber of the transwell, and added 600 μL of complete culture medium to the lower chamber. • 4). medium exchanged on DAY1: The upper chamber and the lower chamber were exchanged with complete culture medium containing 0.1 mg/mL ascorbic acid for 9 days continuously, and the resistance value of membrane expansion was measured. […] Collected the liquid in the upper chamber and the lower chamber for detection. • 7). Calculated Papp according to the formula “Papp=dQ/(dt×A×C0)”. dQ/dt was the transport amount of drugs per unit time, which was the slope of the linear regression of cumulative drug release amount Q versus time t. A was the bottom area of the Transwell orifice plate membrane, and the bottom area was 0.33 cm^2 of 24-well plate in this experiment. Co was the initial concentration of drugs in the upper chamber (μg mL-1).
Series [5] in a line: Caco-2 cell membrane permeability assay. The following applies: human, Caco-2.
Procedure: as §1
The test system of series [6] is Caco-2 cells (human colorectal adenocarcinoma cells). Put plainly: Caco-2 cell membrane permeability assay. As to conditions: Caco-2 monolayer, apical to basolateral, 100 μg/mL, 180 min.
Procedure: as §1
Setting [7] is: Homo sapiens, MDA-MB-435S, 72 h, read-out: Proliferation inhibition IC50.
[8] abbreviates: Homo sapiens, MDA-MB-435S, read-out: MDA-MB-435s Proliferation inhibition IC50.
Setting [9] is: Homo sapiens, MDA-MB-231, 72 h, read-out: Proliferation inhibition IC50.
Setting [10] is: Homo sapiens, MDA-MB-231, read-out: MDA-MB-231 Proliferation inhibition IC50.
Where [11] appears, read: Homo sapiens, MCF7, 72 h, read-out: Proliferation inhibition IC50.
Where [12] appears, read: Homo sapiens, MCF7, read-out: MCF-7 Proliferation inhibition IC50.
Where [13] appears, read: Homo sapiens, MCF7, MCF-7 cells, 72 h after adding the drug, Table 1, read-out: Proliferation inhibition IC50.

Structures can show the parent of a compound that is named as a salt. Where two headings read alike, the source gives them in different places.

Procedure for in vitro: as §1

Regarding `CC[C@@]1(O)C(=O)OCc2c1cc1n(c2=O)Cc2c-1nc1cc(F)c(C)cc1c2[C@@H](C)N` [Example 1], the IC50 in series [1] (setting [7]) turned out to be 0.75 nM; in series [1] (setting [8]), 0.75 nM; in series [2] (setting [9]), 8.2 nM; in series [2] (setting [10]) it was 8.2 nM; in series [3] (setting [11]), 5.2 nM; in series [3] (setting [12]) it was 5.2 nM. In the series “in vitro”, this molecule displayed a Papp A→B at 180 min, 100 μg/mL of 100 ×10⁻⁶ cm/s. Further, the “Permeability compared with reference compounds (in words)” value in series [4] was “obvious advantages over SN38 and exatecan”.
Take `CC[C@@]1(O)C(=O)OCc2c1cc1n(c2=O)Cc2c-1nc1cc(F)c(C)c3c1c2[C@@H](NC(=O)CO)CC3` [Dxd, reference compound]: the IC50 amounted to 5.12 nM in series [1] (setting [7]), 101 nM in series [2] (setting [9]) and 20.3 nM in series [3] (setting [11]). In addition, the apparent permeability from apical to basolateral (Papp A→B) at 180 min, 100 μg/mL in series [5] turned out to be 42 ×10⁻⁶ cm/s.
As for `CC[C@@]1(O)C(=O)OCc2c1cc1n(c2=O)Cc2c-1nc1cc(F)c(C)cc1c2CN` [Compound A, reference compound], the IC50 stood at 21.4 nM in series [1] (Homo sapiens, MDA-MB-435s cells, 72 h after adding the drug, Table 3, read-out: Proliferation inhibition IC50); 21.4 nM in series [1] (Homo sapiens, MDA-MB-435s cells, comparative Table 4, read-out: MDA-MB-435s Proliferation inhibition IC50); 260 nM in series [2] (Homo sapiens, MDA-MB-231 cells, 72 h after adding the drug, Table 2, read-out: Proliferation inhibition IC50); 260 nM in series [2] (Homo sapiens, MDA-MB-231 cells, comparative Table 4, read-out: MDA-MB-231 Proliferation inhibition IC50); 15.3 nM in series [3] (setting [13]); 15.3 nM in series [3] (Homo sapiens, MCF7, MCF-7 cells, comparative Table 4, read-out: MCF-7 Proliferation inhibition IC50). The Papp A→B at 180 min, 100 μg/mL in “in vitro” turned out to be 68.8 ×10⁻⁶ cm/s.
With `CC[C@@]1(O)C(=O)OCc2c1cc1n(c2=O)Cc2c-1nc1cc(F)c(C)cc1c2CO` [Example 12b], the IC50 in series [1] (setting [7]) came to 3.2 nM; in series [1] (setting [8]) it was 3.2 nM; in series [2] (setting [9]), 20.2 nM; in series [2] (setting [10]) it was 20.2 nM; in series [3] (setting [11]) it was 16.5 nM; in series [3] (setting [12]) it was 16.5 nM. In the series “in vitro”, this molecule had an apparent permeability from apical to basolateral (Papp A→B) at 180 min, 100 μg/mL of 49.3 ×10⁻⁶ cm/s.
With `CC[C@@]1(O)C(=O)OCc2c1cc1n(c2=O)Cc2c-1nc1cc(F)c(C)c3c1c2[C@@H](N)CC3` [Compound B, Exatecan, reference compound], the IC50 in series [1] (setting [7]) is 2.52 nM; in series [2] (setting [9]), 30.9 nM; in series [3] (setting [11]) it was 5.5 nM. In addition, the apical-to-basolateral permeability (Papp A→B) at 180 min, 100 μg/mL in series [5] came to 68.6 ×10⁻⁶ cm/s.
For `CC[C@@]1(O)C(=O)OCc2c1cc1n(c2=O)Cc2c-1nc1cc(F)c(C)cc1c2[C@H](C)O` [Example 12c], the IC50 in series [1] (setting [7]) is 0.7 nM; in series [2] (setting [9]), 6.6 nM; in series [3] (setting [11]), 3.5 nM. Moreover, the Papp A→B at 180 min, 100 μg/mL in “in vitro” amounted to 96 ×10⁻⁶ cm/s. Moreover, the “Permeability compared with reference compounds (in words)” value in series [4] was “obvious advantages over SN38 and exatecan”.
On to `CCc1c2c(nc3ccc(O)cc13)-c1cc3c(c(=O)n1C2)COC(=O)[C@]3(O)CC` [SN38, reference compound], for which the IC50 in series [1] (MDA-MB-435s cells, 72 h after adding the drug, Table 3, read-out: Proliferation inhibition IC50) was determined as 6.89 nM; in series [2] (MDA-MB-231 cells, 72 h after adding the drug, Table 2, read-out: Proliferation inhibition IC50), 124 nM; in series [3] (MCF-7 cells, 72 h after adding the drug, Table 1, read-out: Proliferation inhibition IC50) it was 22.5 nM. In addition, the “Permeability Coefficient (Papp 10^−6 cm/s) A→B” value in series [6] is 46.8 10^−6 cm/s.
As to `CC[C@@]1(O)C(=O)OCc2c1cc1n(c2=O)Cc2c-1nc1cc(F)c(C)cc1c2[C@@H](C)NC(=O)CO` [Example 13b], the figures for the IC50 in series [1] (setting [7]), in series [2] (setting [9]) and in series [3] (setting [13]) were 3.9 nM, 130 nM and 25.6 nM, respectively. In the series “in vitro”, this molecule gave a Papp A→B at 180 min, 100 μg/mL of 56.1 ×10⁻⁶ cm/s.
Regarding `COCCc1ccc(OCC(O)CNC(C)C)cc1` (centres unmarked) [Metoprolol Tartrate], the apical-to-basolateral permeability (Papp A→B) at 180 min, 100 μg/mL in series [5] turned out to be 193 ×10⁻⁶ cm/s.
In the case of `CC[C@@]1(O)C(=O)OCc2c1cc1n(c2=O)Cc2c-1nc1cc(F)c(OC)cc1c2[C@@H](C)N` [Example 30b], the figures for the IC50 in series [1] (setting [7]), in series [2] (setting [9]) and in series [3] (setting [11]) were 0.9 nM, 25 nM and 3.8 nM, respectively.
For `CC[C@@]1(O)C(=O)OCc2c1cc1n(c2=O)Cc2c-1nc1cc(F)c(C)cc1c2[C@@H](N)CO` [Example 39a], in that order: 2.12 nM, 25.9 nM and 9.8 nM.

Values taken from patent US20240376120A1, “CAMPTOTHECIN COMPOUND, PREPARATION METHOD THEREFOR AND USE THEREOF” (priority 2021, published 2024).
